Tests used:
rosacea = settings: Gul 2008; BPO as sole active agent; cited from earlier work
[1] = tested on: papulopustular rosacea in patients aged 65 years and older; experiment: Randomized, double-blind, vehicle-controlled 12-week study of E-BPO cream: Investigator Global Assessment (IGA) success rate; format: in vivo, human; settings: Week 8
Experimental: Description: A randomized, double-blind, multi-center, parallel group, active- and vehicle-controlled study of encapsulated 5% benzoyl peroxide cream (E-BPO) and vehicle cream was performed to assess the efficacy and safety of E-BPO compared to vehicle. Study duration was 12 weeks and included approximately 350 male and female patients afflicted with papulopustular rosacea. 71 patients (about 20%) were at least 65 years of age.
Patients were admitted into the study after meeting all inclusion/exclusion criteria, including a clinical diagnosis of rosacea. Subjects with moderate to severe rosacea who were appropriate for systemic treatment were counseled regarding their treatment options by the Principal Investigator. At each visit, a 5-point IGA scale of rosacea and inflammatory lesion counts were performed and recorded.
Dosing: Patients were randomly organized in a 2:1 ratio to the study product or vehicle treatment group, respectively. Patients applied the study product once daily for 12 weeks on the face in a thin layer to provide even distribution.
Clinical and Safety Evaluations were performed at Baseline and Weeks 2, 4, 8 and 12.
The success rate of the treatment of rosacea (defined as a 2-grade improvement in the IGA relative to Baseline at Weeks 2, 4, […] and 12, with an IGA of Clear or Almost Clear) in patients aged 65 years and older are shown in Table 1 and FIG. 1. […]

For O=C(OOC(=O)c1ccccc1)c1ccccc1 [BPO, Benzoyl peroxide], the “Response of rosacea lesions” value (rosacea) is given as “unresponsive” and the “Success rate greater than the success rate achieved with vehicle alone (difference drug - vehicle)” value [1] is given as 25%.

Source: patent publication US11865100B2, “Method for treatment of rosacea in patients aged 65 years and older” (Sol-Gel Technologies Ltd., priority 2019, dated 2024)
